Source: ChEMBL document CHEMBL3877258, “Targeting cytochrome P450 (CYP) 1B1 with steroid derivatives” (Bioorg Med Chem Lett, 2016)

Legend:
[1] = target: T1, CYP1B1 (Homo sapiens, UniProt Q16678); assay: Inhibition of recombinant human CYP1B1 expressed in bacterial microsomes co-expressing P450 reductase at 3 uM using 7-ethyl-O-resorufin as substrate after 45 mins in presence of NADPH by fluorescence assay relative to control; settings: probe 7-ethyl-O-resorufin
T1 sequence (Q16678 whole entry): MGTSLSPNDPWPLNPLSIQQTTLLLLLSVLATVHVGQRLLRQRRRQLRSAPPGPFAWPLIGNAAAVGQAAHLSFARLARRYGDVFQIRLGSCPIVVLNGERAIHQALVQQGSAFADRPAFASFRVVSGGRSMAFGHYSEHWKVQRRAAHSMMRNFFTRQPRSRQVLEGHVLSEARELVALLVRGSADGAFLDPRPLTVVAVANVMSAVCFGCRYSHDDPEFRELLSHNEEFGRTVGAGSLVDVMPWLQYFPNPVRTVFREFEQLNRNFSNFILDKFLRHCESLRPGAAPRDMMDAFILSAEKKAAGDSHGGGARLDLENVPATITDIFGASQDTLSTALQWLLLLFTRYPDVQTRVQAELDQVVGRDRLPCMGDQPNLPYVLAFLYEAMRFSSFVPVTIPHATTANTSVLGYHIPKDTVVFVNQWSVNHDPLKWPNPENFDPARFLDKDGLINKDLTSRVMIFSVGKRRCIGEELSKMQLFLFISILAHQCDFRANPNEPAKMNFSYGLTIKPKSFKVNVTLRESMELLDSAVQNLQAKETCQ

[2] = target: T2, Cytochrome P450 1B1 (Homo sapiens, UniProt Q16678); assay: Inhibition of recombinant human CYP1B1 expressed in bacterial microsomes co-expressing P450 reductase using 7-ethyl-O-resorufin as substrate after 45 mins in presence of NADPH by fluorescence assay
T2 sequence (Q16678 whole entry): T1 sequence (Q16678 whole entry)

**Q.** For `COc1ccc2c(c1)CC[C@@H]1[C@@H]2CC[C@]2(C)C(=O)CC[C@@H]12`, which inhibition at 0.75 h, 3 µM [1] is on record?
**A.** 2%

**Q.** With `C[C@]12CC[C@@H]3c4cc(F)c(O)cc4CC[C@H]3[C@@H]1CC[C@@H]2O` as the compound, how does the inhibition at 0.75 h, 3 µM [1] read?
**A.** 28.7%

**Q.** Which inhibition at 0.75 h, 3 µM [1] does the source give for `C[C@]12CC[C@@H]3c4ccc(O)c(F)c4CC[C@H]3[C@@H]1CC[C@@H]2O` here?
**A.** 7.5%

**Q.** For `C[C@]12CC[C@@H]3c4ccc(O)cc4CC[C@H]3[C@@H]1C[C@@H](CCCBr)[C@@H]2O`, which inhibition at 0.75 h, 3 µM [1] is on record?
**A.** 2%

**Q.** How did the inhibition at 0.75 h, 3 µM [1] turn out when `C[C@]12CC[C@@H]3c4cc(Br)c(O)c(Br)c4CC[C@H]3[C@@H]1CC[C@@H]2O` was run?
**A.** 1%

**Q.** `C[C@]12CC[C@@H]3c4ccccc4CC[C@H]3[C@@H]1CCC2=O` was tested. Which inhibition at 0.75 h, 3 µM [1] did it give?
**A.** 11.3%

**Q.** With `C[C@]12CC[C@@H]3c4cc(Br)c(O)cc4CC[C@H]3[C@@H]1CC[C@@H]2O` as the compound, how does the inhibition at 0.75 h, 3 µM [1] read?
**A.** 22.6%

**Q.** `C[C@]12CC[C@@H]3c4ccc(OC(N)=O)cc4CC[C@H]3[C@@H]1CCC2=O` was tested. Which inhibition at 0.75 h, 3 µM [1] did it give?
**A.** 9.9%

**Q.** How did the inhibition at 0.75 h, 3 µM [1] turn out when `COc1cc2c(cc1OS(N)(=O)=O)CC[C@@H]1[C@@H]2CC[C@]2(C)[C@@H](O)CC[C@@H]12` was run?
**A.** 23.8%

**Q.** With `C[C@]12CC[C@@H]3c4ccc(O)c(Br)c4CC[C@H]3[C@@H]1CC[C@@H]2O` as the compound, how does the inhibition at 0.75 h, 3 µM [1] read?
**A.** 29%

**Q.** Which inhibition at 0.75 h, 3 µM [1] does the source give for `Cc1cc2c(cc1O)CC[C@@H]1[C@@H]2CC[C@]2(C)[C@@H](O)CC[C@@H]12` here?
**A.** 1%

**Q.** For `C[C@]12CC[C@@H]3c4ccc(OS(=O)(=O)O)cc4CC[C@H]3[C@@H]1CC[C@@H]2O`, which inhibition at 0.75 h, 3 µM [1] is on record?
**A.** 0.9%

**Q.** Which inhibition at 0.75 h, 3 µM [1] does the source give for `COc1cc2c(cc1OS(N)(=O)=O)CC[C@@H]1[C@@H]2CC[C@@]2(C)[C@H]1CC[C@@]2(O)Cc1ccccc1` here?
**A.** 7.7%

**Q.** How did the inhibition at 0.75 h, 3 µM [1] turn out when `C#C[C@]1(O)CC[C@H]2[C@@H]3CCc4c(ccc(O)c4Br)[C@H]3CC[C@@]21C` was run?
**A.** 7.5%

**Q.** For `C[C@]12CC[C@@H]3c4ccc(C5CO5)cc4CC[C@H]3[C@@H]1CCC2=O` (stereo not given in full), which inhibition at 0.75 h, 3 µM [1] is on record?
**A.** 12.4%

**Q.** With `CCCCCCCN(C=O)[C@H]1CC[C@H]2[C@@H]3CCc4cc(O)ccc4[C@H]3CC[C@]12C` as the compound, how does the inhibition at 0.75 h, 3 µM [1] read?
**A.** 0%

**Q.** `C[C@]12CC[C@@H]3c4ccc(O)cc4C(=O)C[C@H]3[C@@H]1CC[C@@H]2O` was tested. Which inhibition at 0.75 h, 3 µM [1] did it give?
**A.** 9.7%

**Q.** Which inhibition at 0.75 h, 3 µM [1] does the source give for `C[C@]12CC[C@@H]3c4ccc(OS(N)(=O)=O)cc4CC[C@H]3[C@@H]1CC[C@@]2(O)CN1CCN(C(=O)[C@H](Cc2ccccc2)NC(=O)CCC2CCCC2)CC1` here?
**A.** 14.9%

**Q.** Which inhibition at 0.75 h, 3 µM [1] does the source give for `Cc1ccc(S(=O)(=O)/N=S(\C)c2ccc3c(c2)CC[C@@H]2[C@@H]3CC[C@]3(C)C(=O)CC[C@@H]23)cc1` (stereo not given in full) here?
**A.** 0.1%

**Q.** Which inhibition at 0.75 h, 3 µM [1] does the source give for `C[C@]12CC[C@@H]3c4ccc(OS(N)(=O)=O)cc4CC[C@H]3[C@@H]1C[C@H](CCCNC(=O)C(Cc1ccccc1)NC(=O)Cc1ccccc1)[C@@H]2O` (stereo not given in full) here?
**A.** 22.8%

**Q.** With `C[C@]12CC[C@@H]3c4ccc([N+](C)(C)[O-])cc4CC[C@H]3[C@@H]1CCC2=O` as the compound, how does the inhibition at 0.75 h, 3 µM [1] read?
**A.** 36.6%

**Q.** For `C[C@]12CC[C@@H]3c4cc([N+](=O)[O-])c(O)c([N+](=O)[O-])c4CC[C@H]3[C@@H]1CC[C@@H]2O`, which inhibition at 0.75 h, 3 µM [1] is on record?
**A.** 11.4%

**Q.** `C[C@]12CC[C@@H]3c4ccccc4C(=O)C[C@H]3[C@@H]1CCC2=O` was tested. Which inhibition at 0.75 h, 3 µM [1] did it give?
**A.** 16%

**Q.** With `COc1cc2c(cc1O)CC[C@@H]1[C@@H]2CC[C@@]2(C)[C@H]1CC[C@@]2(O)Cc1ccccc1` as the compound, how does the inhibition at 0.75 h, 3 µM [1] read?
**A.** 0%

**Q.** With `C#C[C@]1(O)CC[C@H]2[C@@H]3CCc4cc(O)c(Br)cc4[C@H]3CC[C@@]21C` as the compound, how does the inhibition at 0.75 h, 3 µM [1] read?
**A.** 8.4%

**Q.** How did the inhibition at 0.75 h, 3 µM [1] turn out when `C[C@]12CC[C@@H]3c4ccc(OS(N)(=O)=O)cc4CC[C@H]3[C@@H]1C[C@H](CCCNC(=O)C1CCCN1C(=O)Cc1ccccc1)[C@@H]2O` (stereo not given in full) was run?
**A.** 21.4%

**Q.** `C[C@]12CC[C@@H]3c4ccccc4C(O)C[C@H]3[C@@H]1CC[C@@H]2O` (stereo not given in full) was tested. Which inhibition at 0.75 h, 3 µM [1] did it give?
**A.** 20%

**Q.** With `C[C@]12CC[C@@H]3c4ccc(NC(=O)O)cc4CC[C@H]3[C@@H]1CCC2=O` as the compound, how does the inhibition at 0.75 h, 3 µM [1] read?
**A.** 8.9%

**Q.** Which inhibition at 0.75 h, 3 µM [1] does the source give for `CCCCCCCN(C=O)[C@H]1CC[C@H]2[C@@H]3CCc4cc(OC)ccc4[C@H]3CC[C@]12C` here?
**A.** 3.5%

**Q.** With `C[C@]12CC[C@@H]3c4ccc(O)cc4CC[C@H]3[C@@H]1C[C@H](CCCNC(=O)C(Cc1ccccc1)NC(=O)Cc1ccccc1)[C@@H]2O` (stereo not given in full) as the compound, how does the inhibition at 0.75 h, 3 µM [1] read?
**A.** 7.7%

**Q.** For `C[C@]12CC[C@@H]3c4ccc(N)cc4CC[C@H]3[C@@H]1CCC2=O`, which inhibition at 0.75 h, 3 µM [1] is on record?
**A.** 16.2%

**Q.** Which inhibition at 0.75 h, 3 µM [1] does the source give for `C[C@]12CC[C@@H]3c4ccc(C(=O)O)cc4CC[C@H]3[C@@H]1CCC2=O` here?
**A.** 11.5%

**Q.** How did the inhibition at 0.75 h, 3 µM [1] turn out when `C[C@]12CC[C@@H]3c4ccc(OCCBr)cc4CC[C@H]3[C@@H]1CC[C@@H]2O` was run?
**A.** 11.1%

**Q.** Which IC50 [2] does the source give for `C[C@]12CC[C@@H]3c4ccc(S)cc4CC[C@H]3[C@@H]1CCC2=O` here?
**A.** 3.4 µM

**Q.** What about the inhibition at 0.75 h, 3 µM [1] of the same compound?
**A.** 61.1 to 61.6%

**Q.** How did the inhibition at 0.75 h, 3 µM [1] turn out when `CCc1ccc2c(c1)CC[C@@H]1[C@@H]2CC[C@]2(C)C(=O)CC[C@@H]12` was run?
**A.** 42.8%

**Q.** Which inhibition at 0.75 h, 3 µM [1] does the source give for `CC(=O)c1ccc(C(=O)N2CCCC2C(=O)NCCCCCCCCCCC[C@@H]2Cc3cc(O)ccc3[C@H]3CC[C@]4(C)[C@@H](O)CC[C@H]4[C@H]23)cc1` (stereo not given in full) here?
**A.** 22.1%

**Q.** Which inhibition at 0.75 h, 3 µM [1] does the source give for `CNS(=O)(=O)Oc1cc2c(cc1OS(=O)(=O)NC)[C@H]1CC[C@]3(C)C(=O)CC[C@H]3[C@@H]1CC2` here?
**A.** 30.3%

**Q.** With `CCS(=O)(=O)Oc1ccc2c(c1)CC[C@@H]1[C@@H]2CC[C@]2(C)C(=O)CC[C@@H]12` as the compound, how does the inhibition at 0.75 h, 3 µM [1] read?
**A.** 0.3%

**Q.** `CCCCCCCN[C@H]1CC[C@H]2[C@@H]3CCc4ccc(OC)cc4[C@H]3CC[C@]12C` was tested. Which inhibition at 0.75 h, 3 µM [1] did it give?
**A.** 9.4%

**Q.** For `COc1cc2c(cc1O)CC[C@@H]1[C@@H]2CC[C@]2(C)C(=O)CC[C@@H]12`, which inhibition at 0.75 h, 3 µM [1] is on record?
**A.** 13.2%

**Q.** `C[C@]12CC[C@@H]3c4ccc(O)cc4CC[C@H]3[C@@H]1CC[C@@]21CCC(=O)O1` was tested. Which inhibition at 0.75 h, 3 µM [1] did it give?
**A.** 13.9%

**Q.** With `COc1cc2c(cc1O)CC[C@@H]1[C@@H]2CC[C@]2(C)[C@@H](O)CC[C@@H]12` [2-METHOXYESTRADIOL] as the compound, how does the inhibition at 0.75 h, 3 µM [1] read?
**A.** 4.4%

**Q.** How did the inhibition at 0.75 h, 3 µM [1] turn out when `O=c1cc(-c2ccccc2)oc2c1ccc1ccccc12` [ALPHA-NAPHTHOFLAVONE] was run?
**A.** 89.2%

**Q.** How did the inhibition at 0.75 h, 3 µM [1] turn out when `C[C@]12CC[C@@H]3c4ccc(OS(N)(=O)=O)cc4CC[C@H]3[C@@H]1CCC2=O` [EMATE] was run?
**A.** 8.6%
